Data set [1] in a line: Plasma concentration by LC-MS/MS in I/R rats. Details: species or system Male OFA Sprague-dawley rats. The following applies: rat, in vivo; 25 mg/kg/day (12.5 mg/kg BID) by force-feeding, 4 weeks; blood 90 minutes after last oral administration; ± SD. The source says: • Figure 1 is a combination of two graphs showing left atrium (LA) area after one month of treatment with DTI Dabigatran (A) or S35792 (B). Vehicle (V) is 60% H2O/40% PEG 300 for dabigatran and saline for S35972. Treatment of rats started just after thoracotomy without (Sham) or with occlusion of left coronary artery followed by reperfusion (I/R). Results are presented as mean +/- S.E.M, *P<0.05, **P<0.01 and *** P<0.001 vs Sham; ^##P<0.01 and ^###P<0.001 vs untreated I/R. • Figure 2 is a combination of graphs showing left ventricular end-diastolic (LVED) diameter and fractional shortening (FS) after one month of treatment with Dabigatran (A) or S35792 (B). Vehicle (V) is 60% H2O/40% PEG 300 for dabigatran and saline for S35972. Treatment of rats started just after thoracotomy without (Sham) or with occlusion of left coronary artery followed by reperfusion (I/R). Results are presented as mean +/- S.E.M. * P<0.05; ** P<0.001, *** P<0.001 vs Sham; #P<0.05 vs untreated I/R. • Figure 3 is a combination of two graphs showing thrombin time (TT), which reflects anticoagulant activity, and plasma concentrations of Dabigatran (A) and S35792 (B) in rats after throracotomy with occlusion of left coronary artery followed by reperfusion (I/R). Vehicle (V) is 60% H2O/40% PEG 300 for dabigatran and saline for S35972. […] DTI plasma levels are quantified using LC-MS/MS. TT are expressed as mean +/- S.E.M with reference to the mean value of sham animals that underwent thoracotomy only. *** P<0.001 vs untreated I/R. • Figure 4 is a combination of three graphs showing left atrium (LA) area (A) and diameter (B) and left ventricle end-diastolic (LVED) diameter (C) after two months of treatment with S35972. […] LA area was measured by bidimensional echocardiography. LA and LVED diameters were measured in time-motion mode. […] AF duration is measured as the time between the end of the electric stimulation and the return to sinusoidal rhythm. […] Expression of mRNA was measured with real-time qPCR. […] Expression of mRNA was measured with real-time qPCR. […]

Data set [2] concerns blood coagulation. In words: Thrombin time (TT) on blood collected by cardiac puncture at sacrifice of I/R rats. Format: in vivo, Male OFA Sprague-dawley rats. The settings on record: 25 mg/kg/day (12.5 mg/kg BID) by force-feeding; with reference to the mean value of sham animals. The source says:
• Figure 1 is a combination of two graphs showing left atrium (LA) area after one month of treatment with DTI Dabigatran (A) or S35792 (B). Vehicle (V) is 60% H2O/40% PEG 300 for dabigatran and saline for S35972. Treatment of rats started just after thoracotomy without (Sham) or with occlusion of left coronary artery followed by reperfusion (I/R). […] Vehicle (V) is 60% H2O/40% PEG 300 for dabigatran and saline for S35972. Treatment of rats started just after thoracotomy without (Sham) or with occlusion of left coronary artery followed by reperfusion (I/R). Results are presented as mean +/- S.E.M. * P<0.05; ** P<0.001, *** P<0.001 vs Sham; #P<0.05 vs untreated I/R. • Figure 3 is a combination of two graphs showing thrombin time (TT), which reflects anticoagulant activity, and plasma concentrations of Dabigatran (A) and S35792 (B) in rats after throracotomy with occlusion of left coronary artery followed by reperfusion (I/R). Vehicle (V) is 60% H2O/40% PEG 300 for dabigatran and saline for S35972. […] DTI plasma levels are quantified using LC-MS/MS. TT are expressed as mean +/- S.E.M with reference to the mean value of sham animals that underwent thoracotomy only. *** P<0.001 vs untreated I/R. • Figure 4 is a combination of three graphs showing left atrium (LA) area (A) and diameter (B) and left ventricle end-diastolic (LVED) diameter (C) after two months of treatment with S35972. […] LA area was measured by bidimensional echocardiography. LA and LVED diameters were measured in time-motion mode. […] AF duration is measured as the time between the end of the electric stimulation and the return to sinusoidal rhythm. […] Expression of mRNA was measured with real-time qPCR. […] Expression of mRNA was measured with real-time qPCR. […] Expression of mRNA was measured with real-time qPCR. […] LA area was measured by bidimensional echocardiography. LVED and LA diameters were measured in time-motion mode. […] AF duration is measured as the time between the end of the electric stimulation and return to sinusoidal rhythm. […]

In the case of `[H]/N=C(/N)c1ccc(NCc2nc3cc(C(=O)N(CCC(=O)O)c4ccccn4)ccc3n2C)cc1` [dabigatran, reference compound], the concentration at 1.5 h in data set [1] stood at 49.2 ± 19.3 ng/mL. Moreover, the “thrombin time increases by a factor” value in data set [2] is given as 8.

The record behind these values is patent EP3072514A1, “Novel oral anticoagulants (NOACs) for preventing development and aggravation of atrial fibrillation” (Université Pierre et Marie Curie - Paris 6 (UPMC), priority 2015, dated 2016).
